In test [1] the test system is P. aeruginosa Pa4. Description: Agar diffusion antibacterial susceptibility assay. Further details: key to Diameter of growth inhibition zones: partially clear inhibition zone/colonies in the inhibition zone; P: unclear inhibition zone/many colonies in the inhibition zone; indicates only a hint of growth inhibition detectable. The note with it: 37° C.; for zone of inhibition at 200 µM / zone of inhibition at 100 µM: Pseudomonas aeruginosa, PA4, 24 h, read-out: Diameter of growth inhibition zones; for zone of inhibition at 200 µM / Diameter of growth inhibition zones: 50 μL of 0.2 mM solution; for Diameter of growth inhibition zones: 24 hours; for zone of inhibition at 100 µM: 50 μL of 0.1 mM solution. It is filed as cell-based, Pseudomonas aeruginosa. As to the method:
(§1) All liquids and media were sterilized by autoclaving (121° C., 15 min) before use. All aqueous solutions and media were prepared using distilled, deionized, and filtered water (Millipore Milli-Q Advantage A10 Water Purification System). Luria broth (LB) was purchased from VWR. Mueller-Hinton No. 2 broth (MHII broth; cation adjusted) was purchased from Sigma-Aldrich (St. Louis, Mo.). Iron-deficient (—Fe) MHII broth was prepared by adding 0.8 mL of a 1 mg/mL sterile aq. solution of 2,2′-bipyridine to 49.2 mL of MHII broth. Iron-rich (+Fe) MHII broth was prepared by adding 0.8 mL of a 1 mg/mL sterile aq. solution of FeCl3 to 49.2 mL of MHII broth. Mueller-Hinton No. 2 agar (MHII agar; HiMedia Laboratories) was purchased from VWR. Iron-deficient (−Fe) MHII agar was prepared by adding 0.5 mL of a 1 mg/mL sterile aq. solution of 2,2′-bipyridine to 34 mL of melted MHII agar with gentle mixing. Iron-rich (+Fe) MHII agar was prepared by adding 0.5 mL of a 1 mg/mL sterile aq. solution of FeCl3 to 34 mL of melted MHII agar with gentle mixing. See also Wencewicz, T. A. Dissertation, University of Notre Dame, Notre Dame, Ind., 2011, for relevant techniques.
(§2) Antibacterial Susceptibility Testing by the Agar Diffusion Assay.
(§3) Antibacterial activity of the compounds was determined by a modified Kirby-Bauer agar diffusion assay. Overnight cultures of test organisms were grown in LB broth for 18-24 h and standard suspensions of […] were prepared in saline solution (0.9% NaCl) according to a 0.5 BaSO4 McFarland Standard. This standardized suspension (0.1 mL) was added to 34 mL of sterile, melted agar (−Fe or +Fe) tempered to 47-50° C. After gentle mixing, the inoculated agar media was poured into a sterile plastic petri dish (145 mm×20 mm) and allowed to solidify near a flame with the lid ajar for about 30 min. Wells of 9.0 mm diameter were cut from the petri dish agar and filled with exactly 50 μL of the test sample solution. The petri dish was incubated at 37° C. for 18-24 h and the inhibition zone diameters were measured (mm) with an electronic caliper after 24 h.

Test [2] has as its system various wild type strains of P. aeruginosa. Description: MIC by broth microdilution (text summary over strains). The class given is cell-based. Conditions: Pseudomonas aeruginosa, iron-deficient medium, read-out: MICs against various wild type strains of P. aeruginosa. The method, then: as §1
For test [3], the system named is P. aeruginosa Pa6. Description: MIC90 by broth microdilution assay. It is filed as cell-based, Pseudomonas aeruginosa. The note with it: for MIC90: P. aeruginosa Pa6, 37° C., 20 h. The method, then:
(§4) ^aMIC90 values (μM) were determined using the broth microdilution method in Mueller-Hinton broth No. 2 (MHII) with visual end point analysis according to the CLSI guidelines (Methods for Dilution Antimicrobial Susceptibility Tests for Bacteria that Grow Aerobically, 8th ed. (Villanova, Pa., USA), Clinical and Laboratory Standards Institute (CLSI), 2009, approved standard document M07-A7). ^bEach compound was tested in triplicate.
as §1
(§5) Determination of MIC90 Values by the Broth Microdilution Assay.
(§6) Antibacterial activity of the compounds was determined by measuring their minimum inhibitory concentrations (MIC90's) using the broth microdilution method according to the Clinical and Laboratory Standards Institute (CLSI, formerly the NCCLS) guidelines. Each well of a 96-well microtiter plate was filled with 50 μL of sterile broth media (−Fe or +Fe). Each test compound was dissolved in DMSO making a 20 mM solution, and then diluted with sterile broth media (−Fe or +Fe) to 400 or 800 μM. Exactly 50 μL of the compound solution was added to the first well of the microtiter plate and 2-fold serial dilutions were made down each row of the plate. Exactly 50 μL of bacterial inoculum (5×10^5 CFU/mL in broth media) was then added to each well giving a total volume of 100 μL/well. The plate was incubated at 37° C. for 20 h and then each well was examined for bacterial growth. The MIC90 was recorded as the lowest compound concentration (μM) required to inhibit 90% of bacterial growth as judged by turbidity of the culture media relative to a row of wells filled with a DMSO standard.

For test [4], the system named is P. aeruginosa KW799/wt. Briefly: MIC90 by broth microdilution assay. The class given is cell-based. Conditions: Pseudomonas aeruginosa, 20 h, 37° C. As to the method:
as §4, §1, §5, §6

Test [5] has as its system P. aeruginosa Pa4. Briefly: MIC90 by broth microdilution assay. The class given is cell-based. Conditions: Pseudomonas aeruginosa, PA4, 20 h, 37° C. The method, then: as §4, §1, §5, §6
A further test relates to P. aeruginosa KW799/61. Description: MIC90 by broth microdilution assay. The class given is cell-based. Conditions: Pseudomonas aeruginosa, KW799/61, 20 h. As to the method:
as §4, §1, §5, §6

In test [6] the test system is E. coli H1876 (fepA−, cir−, fiu−). Briefly: Agar diffusion antibacterial susceptibility assay. The class given is cell-based, Escherichia coli. The note with it: for Diameter of growth inhibition zones: E. coli H1876 (fepA−, cir−, fiu−), −Fe agar, 37° C., 24 hours; for zone of inhibition at 200 µM: Escherichia coli, 24 h, read-out: Diameter of growth inhibition zones. The method, then:
as §1, §2, §3

The subject of test [7] is P. aeruginosa Pa6. Briefly: Agar diffusion antibacterial susceptibility assay. The class given is cell-based, Pseudomonas aeruginosa. Conditions: for Diameter of growth inhibition zones: −Fe agar. As to the method: as §1, §2, §3
Test [8] has as its system P. aeruginosa K648 (pvd−, pch−). Briefly: Agar diffusion antibacterial susceptibility assay. The class given is cell-based, Pseudomonas aeruginosa. Conditions: for zone of inhibition at 200 µM / zone of inhibition at 100 µM: Pseudomonas aeruginosa, 24 h, read-out: Diameter of growth inhibition zones, P. aeruginosa K648 (pvd−, pch−), 37° C., 24 hours; for zone of inhibition at 200 µM: 50 μL of 0.2 mM solution; for zone of inhibition at 100 µM: 50 μL of 0.1 mM solution. The method, then: as §1, §2, §3

Test [9] deals with P. aeruginosa KW799/wt. Briefly: Agar diffusion antibacterial susceptibility assay. It is filed as cell-based, Pseudomonas aeruginosa. Conditions: 37° C.; for Diameter of growth inhibition zones: 24 hours; for zone of inhibition at 100 µM: 50 μL of 0.1 mM solution. As to the method: as §1, §2, §3
The subject of test [10] is E. coli H1443 (fepA+, cir+, fiu+). Briefly: Agar diffusion antibacterial susceptibility assay. The class given is cell-based. The note with it: Escherichia coli, 24 h, 50 μL of 0.1 mM solution, 37° C., read-out: Diameter of growth inhibition zones. As to the method: as §1, §2, §3
The mark [11] stands for this setting: −Fe (iron-deficient) MHII broth.
Setting [12] is: Pseudomonas aeruginosa, +Fe (iron-rich) MHII broth.
Where [13] appears, read: read-out: MIC (MIC90), P. aeruginosa KW799/61, +Fe (iron-rich) MHII broth, 37° C.
Setting [14] is: read-out: MIC (MIC90), P. aeruginosa KW799/61, −Fe (iron-deficient) MHII broth, 37° C.
[15] abbreviates: P. aeruginosa Pa6, 50 μL of 0.2 mM solution, 37° C., 24 hours.
The mark [16] stands for this setting: Pseudomonas aeruginosa, P. aeruginosa Pa6, +Fe agar, 50 μL of 0.2 mM solution, 37° C., 24 hours, read-out: Diameter of growth inhibition zones.
Where [17] appears, read: −Fe agar, 50 μL of 0.2 mM solution.

Structures are written as SMILES. In brackets after ≈: the same amount, converted by molar mass. Where two headings read alike, the source gives them in different places.

`CC1(C)S[C@@H]2[C@H](NC(=O)[C@H](N)c3ccc(O)cc3)C(=O)N2[C@H]1C(=O)O` [Amoxicillin, reference compound]: the zone of inhibition at 200 µM with P. aeruginosa Pa4 [1] (+Fe agar) came out at 0 mm; in test [6] it was 0 mm; with P. aeruginosa Pa6 [7] (setting [16]), 0 mm; in [8] (+Fe agar), 0 mm; in [8] (−Fe agar), 0 mm; with P. aeruginosa KW799/wt [9] (Pseudomonas aeruginosa, KW799/WT, 24 h, +Fe agar, 50 μL of 0.2 mM solution, read-out: Diameter of growth inhibition zones), 27 mm. For the same molecule, the “Diameter of growth inhibition zones” value with P. aeruginosa Pa4 [1] (−Fe agar) is recorded as “h”; in test [6] (50 μL of 0.2 mM solution), 0 mm; with P. aeruginosa Pa6 [7] (setting [15]) it was 0 mm; in the test on P. aeruginosa KW799/wt [9] (setting [17]), 18p. In addition, the MIC in test [2] was greater than 100 µM. In addition, the MIC90 in the test with P. aeruginosa Pa6 [3] (setting [11]) was greater than 200 µM; in the test with P. aeruginosa Pa6 [3] (setting [12]), greater than 200 µM; against P. aeruginosa KW799/wt [4] (+Fe (iron-rich) MHII broth), greater than 200 µM; against P. aeruginosa KW799/wt [4] (setting [11]), greater than 200 µM; in the test on P. aeruginosa Pa4 [5] (+Fe (iron-rich) MHII broth), greater than 200 µM; in the test with P. aeruginosa Pa4 [5] (setting [11]), greater than 100 µM. The MIC90 worked out at 0.46 µM (≈ 0.168 µg/mL) in the test with P. aeruginosa KW799/61 (setting [13]) and 0.39 µM (≈ 0.143 µg/mL) with P. aeruginosa KW799/61 (setting [14]).
`CC1(C)S[C@@H]2[C@H](NC(=O)[C@H](N)c3ccccc3)C(=O)N2[C@H]1C(=O)O` [Ampicillin, reference compound]: the zone of inhibition at 200 µM (with P. aeruginosa Pa4 [1] (+Fe agar); in [6]; with P. aeruginosa Pa6 [7] (setting [16]); in [8] (+Fe agar); in test [8] (−Fe agar)) was 0 mm in each case. The “Diameter of growth inhibition zones” value with P. aeruginosa Pa4 [1] (−Fe agar) is listed as “h”; in test [6] (50 μL of 0.2 mM solution) it was 0 mm; with P. aeruginosa Pa6 [7] (setting [15]) it was 0 mm; with P. aeruginosa KW799/wt [9] (setting [17]), 23p. Also, the MIC in test [2] is greater than 100 µM. Besides, the MIC90 was greater than 200 µM against P. aeruginosa Pa6 [3] (setting [11]); greater than 200 µM against P. aeruginosa Pa6 [3] (setting [12]); greater than 200 µM with P. aeruginosa KW799/wt [4] (+Fe (iron-rich) MHII broth); greater than 200 µM with P. aeruginosa KW799/wt [4] (setting [11]); greater than 200 µM in the test on P. aeruginosa Pa4 [5] (+Fe (iron-rich) MHII broth); greater than 100 µM against P. aeruginosa Pa4 [5] (setting [11]). For the same molecule, the results for the MIC90 in the test with P. aeruginosa KW799/61 (setting [13]) and in the test on P. aeruginosa KW799/61 (setting [14]) were 0.52 µM (≈ 0.182 µg/mL) and 0.78 µM (≈ 0.273 µg/mL), respectively.
On to `CC(=O)Oc1cccc(C(=O)NCCCC(CCCNC(=O)c2cccc(OC(C)=O)c2OC(C)=O)(CCCNC(=O)c2cccc(OC(C)=O)c2OC(C)=O)NC(=O)CCC(=O)NC(C(=O)NC2C(=O)N3C2SC(C)(C)C3C(=O)O)c2ccccc2)c1OC(C)=O` (stereo not drawn) [Compound 10], for which the zone of inhibition at 100 µM in test [10] (+Fe agar) turned out to be 0 mm; in [10] (−Fe agar), 19 mm; in the test with P. aeruginosa Pa4 [1] (+Fe agar) it was 0 mm; with P. aeruginosa Pa4 [1] (−Fe agar) it was 18 mm; in the test on P. aeruginosa Pa6 [7] (Pseudomonas aeruginosa, P. aeruginosa Pa6, +Fe agar, 50 μL of 0.1 mM solution, 37° C., 24 hours, read-out: Diameter of growth inhibition zones), 0 mm; in test [8] (+Fe agar) it was 0 mm. In addition, the zone of inhibition at 100 µM in test [8] (−Fe agar) is 15 mm; in the test on P. aeruginosa KW799/wt [9] (Pseudomonas aeruginosa, KW799/WT, 24 h, +Fe agar, read-out: Diameter of growth inhibition zones) it was 20 mm; in the test with P. aeruginosa KW799/wt [9] (Pseudomonas aeruginosa, KW799/WT, 24 h, −Fe agar, read-out: Diameter of growth inhibition zones) it was 24 mm. Further, the MIC in test [2] is 0.05 to 0.39 µM (≈ 0.0647 to 0.505 µg/mL). Moreover, the MIC90 was greater than 200 µM in the test on P. aeruginosa Pa6 [3] (setting [11]); greater than 200 µM against P. aeruginosa Pa6 [3] (setting [12]); 33 µM (≈ 42.7 µg/mL) against P. aeruginosa KW799/wt [4] (+Fe (iron-rich) MHII broth); 0.05 µM (≈ 0.0647 µg/mL) against P. aeruginosa KW799/wt [4] (setting [11]); 25 µM (≈ 32.4 µg/mL) in the test with P. aeruginosa Pa4 [5] (+Fe (iron-rich) MHII broth); 0.39 µM (≈ 0.505 µg/mL) in the test on P. aeruginosa Pa4 [5] (setting [11]). Besides, the MIC90 in the test with P. aeruginosa KW799/61 (setting [13]) came to 12.5 µM (≈ 16.2 µg/mL); with P. aeruginosa KW799/61 (setting [14]) it was 0.067 µM (≈ 0.0867 µg/mL). The “activity against Pa6 (MIC assay, in words)” value in the test with P. aeruginosa Pa6 [3] (exception among wild type strains) is “inactive”. In addition, the “Diameter of growth inhibition zones” value in test [6] (50 μL of 0.1 mM solution) is reported as 0 mm; in the test on P. aeruginosa Pa6 [7] (P. aeruginosa Pa6, 50 μL of 0.1 mM solution, 37° C., 24 hours), 0 mm. The “activity against clinical isolate Pa6 (agar diffusion, in words)” value with P. aeruginosa Pa6 [7] (even under iron-deficient conditions) was “no activity”. Also, the “activity against K648 strain (agar diffusion, in words)” value in test [8] (iron-rich medium) was “inactive”.

The values are drawn from patent US9302012B2, “Anti-bacterial siderophore-aminopenicillin conjugates” (University of Notre Dame Du Lac, priority 2012, dated 2016).
